Measurements as given in patent US4749710A, “Immunosuppressive agents” (priority 1985, dated 1988).

Legend:
[1] = system: murine cytotoxic T-lymphocyte responses; experiment: cells; format: cell-based; details: for CTL activity (% specific ^51 Cr release): 90:1 effector to target
Source text: Immunosuppressive Activity of Vitamin D compounds on cytotoxic T lymphocyte Responses-General Test Description
Cytotoxic thymus-derived lymphocytes (CTL) constitute an important aspect of immune function and, as a result, play a key role in the rejection of grafted cells, tissues and organs. It is, therefore, essential to suppress CTL generation in a clinical situation in which CTL function is antithetical to the desired outcome as, for example, in transplantation. Cytotoxic T-lymphocytes have been studied for several years by many investigators and methods to evaluate CTL responses in vitro are well established.
As described below, CTL responses as affected by Vitamin D derivatives, were studied in vitro using cells from lab animals and human volunteers. Cytotoxic T-lymphocytes were generated from responder lymphoid cells in tissue culture medium during an incubation period of 6 days by exposure to foreign stimulator cells, i.e. from a genetically disparate source. A portion of the resultant effector cells were CTL capable of killing fresh cells related to the stimulator cells employed in the 6 day culture. To detect killing of cells by CTL, fresh target cells were incubated in excess ^51 chromium (as sodium chromate) until they were extensively labelled. Since target cells will retain the internalized radioisotope as long as they are viable but release the label when they are killed, CTL activity was assessed by quantitating the chromium released from target cells after a 4 or 18 hour incubation with CTL. Immunosuppression produced by Vitamin D derivatives was gauged as the ability to inhibit CTL responses during the initial incubation period relative to control cultures to which no Vitamin D derivative was added.
Female BALB/c By and C57BL/6 mice were obtained from Jackson Laboratories and were used between 8 and 10 weeks of age. Mice were given food and water ad libitum and were kept in a 12 hour light and 12 hour dark cycle.
For murine cultures, minimal essential medium with Hank's salts was supplemented to 1 millimolar with sodium pyruvate, to 0.1 millimolar with nonessential amino acids, to 2 millimolar with 1-glutamine, to 10% (v/v) with heat-inactivated fetal bovine serum, to 50 micrograms per ml with gentamicin, and to 1000 milligrams per liter with sodium bicarbonate and was used as tissue culture medium.
Stock solutions of Vitamin D derivatives were made in argon-saturated ethanol at a final concentration of 1×10^-2 molar, were covered with argon before sealing and were stored at -20° C. in the dark. Reduced lighting conditions were always employed when working with compounds. Compounds were diluted in tissue culture medium to 1×10^-4 molar and all subsequent dilutions were done in tissue culture medium containing 1% v/v ethanol. The final dilution into culture vessels was 1:10 thus keeping the vehicle concentration constant at 0.1% while varying the concentration of compound as tabulated in the results. For purposes of control, mixed leukocyte cultures were incubated in medium only (medium control) or in medium containing a final concentration of 0.1% ethanol (vehicle control).
Murine cytotoxic T-lymphocytes were generated in mixed leukocyte cultures by known methods. Specifically, single cell suspensions were prepared from spleens by gentle disruption in balanced salt solution (Hanks' balanced salt solution supplemented to 10%, v/v, with fetal bovine serum). After sedimentation on ice to remove particulate debris, cell suspensions were centrifuged at 400xg and were resuspended in fresh balanced salt solution. Cells to be used as stimulator cells were precluded from proliferating or generating cytotoxic T-lymphocytes by exposure to 1000 rads of gamma irradiation using a ^137 cesium source. […]

[2] = system: cytotoxic T-lymphocyte responses (P815 tumor cells); experiment: Suppression of murine CTL responses in vivo (mice immunized with P815 cells); design: species or system C57BL/6 mice; details: for CTL activity (% specific ^51 Cr release): day 10; for CTL activity (% specific ^51 Cr release) / Inhibition of CTL activity (%): effector to target 10:1
Protocol: General description. The general test considerations are similar to those previously described for the in vitro murine experiments except that stimulator cells and experimental compound were administered to intact laboratory mice. The impact of compound on CTL responses generated in vivo was determined by comparing the resultant CTL activity from test mice to the CTL activity generated in mice which received vehicle only.
Female C57BL/6 mice were used between the ages of 9-12 weeks. Mice were given food and water ad libitum and were kept in a 12-hour light and 12-hour dark cycle.
A balanced salt solution (BSS) was prepared as described for tissue culture medium in the in vitro murine experiments but was additionally supplemented to 0.01 molar with HEPES buffer.
The compound, 22,23-dehydro-1α,25S,26-trihydroxycholecalciferol was dissolved in dimethylsulfoxide at final concentrations of 2 or 4 mg per ml. When working with vitamin D compounds, conditions of reduced lighting were employed.
In vivo regimens. Mice were apportioned at 4 per group and were inoculated intraperitoneally with 3×10^6 allogeneic P815 tumor cells and the resulting CTL activity was assessed 10 days later. Mice were treated by the intraperitoneal route with 25 microliters of test compound dissolved in dimethylsulfoxide or with dimethylsulfoxide only (vehicle control). In test 1, mice were given daily treatments of 50 micrograms of 22,23-dehydro-1α,25S,26-trihydroxycholecalciferol per day starting one day before immunization and continuing until the day before assay. In test 2, mice were treated with 100 micrograms of 22,23-dehydro-1α,25S,26-trihydroxycholecalciferol only twice: on the day before immunization and on the day of immunization.
Assay for CTL activity. Ten days after immunization of mice with P815 cells, single spleen cell suspensions were prepared by passage of spleens through a steel mesh into BSS and were subsequently washed twice with BSS. Further manipulations of spleen cells, labeling of P815 target cells with ^51 Cr, mechanics of the assay, and the calculation of results from the CTL assay are the same as described earlier for the in vitro murine CTL tests. Cytotoxic T lymphocyte activity was determined individually on spleen cells from each animal in each group and the results are expressed as the mean CTL activity (as percent specific ^51 Cr release) of each group±the standard deviation.
Statistical analysis. A student's t-test was to compare the vehicle-treatedgroup to the test group in each test and the resultant p values are shown.

| SMILES | inhibition at 10 µM ([1]; Mus musculus, T-lymphocyte, Table I, 1 × 10^-5 molar, vs vehicle control, read-out: Inhibition of CTL activity (%)) [%] | inhibition at 1 µM ([1]; Mus musculus, T-lymphocyte, Table I, 1 × 10^-6 molar, vs vehicle control, read-out: Inhibition of CTL activity (%)) [%] | inhibition at 0.1 µM ([1]; Mus musculus, T-lymphocyte, Table I, 1 × 10^-7 molar, vs vehicle control, read-out: Inhibition of CTL activity (%)) [%] | inhibition at 0.01 µM ([1]; Mus musculus, T-lymphocyte, Table I, 1 × 10^-8 molar, vs vehicle control, read-out: Inhibition of CTL activity (%)) [%] | inhibition at 0.001 µM ([1]; Mus musculus, T-lymphocyte, Table I, 1 × 10^-9 molar, vs vehicle control, read-out: Inhibition of CTL activity (%)) [%] | CTL activity (% specific ^51 Cr release) ([1]; Table I, 1 × 10^-5 molar) | CTL activity (% specific ^51 Cr release) ([1]; Table I, 1 × 10^-6 molar) | CTL activity (% specific ^51 Cr release) ([1]; Table I, 1 × 10^-7 molar) | CTL activity (% specific ^51 Cr release) ([1]; Table I, 1 × 10^-8 molar) | CTL activity (% specific ^51 Cr release) ([1]; Table I, 1 × 10^-9 molar) | suppression of murine cytotoxic T-lymphocyte responses (in words) ([1]; in vitro) | reduction in CTL activity in mice (in words) ([2]; both tests) | CTL activity (% specific ^51 Cr release) ([2]; test 1, 50 ug/dose intraperitoneal daily) | Inhibition of CTL activity (%) ([2]; test 1, 50 ug/dose intraperitoneal daily, p < 0.05) | CTL activity (% specific ^51 Cr release) ([2]; test 2, 100 ug/dose intraperitoneal, twice) | Inhibition of CTL activity (%) ([2]; test 2, 100 ug/dose intraperitoneal, twice, p < 0.01) |
| --- | --- | --- | --- | --- | --- | --- | --- | --- | --- | --- | --- | --- | --- | --- | --- | --- |
| C=C1/C(=C\C=C2/CCC[C@]3(C)[C@@H]([C@H](C)C[C@H](O)CC(C)(C)O)CC[C@@H]23)C[C@@H](O)C[C@@H]1O [1α,23S,25-(OH)3 --D3, 1α,23S,25-Trihydroxycholecalciferol] | 77 | 59 | 43 | 18 | 0 | 10 | 18 | 25 | 36 | 45 | suppress murine cytotoxic T-lymphocyte responses | – | – | – | – | – |
| C=C1/C(=C\C=C2/CCC[C@]3(C)[C@@H]([C@H](C)C=CC[C@](C)(O)CO)CC[C@@H]23)C[C@@H](O)C[C@@H]1O [1α,25S,26-(OH)3 --Δ^22 -D3, 1α,25S,26-Trihydroxy-Δ^22-cholecalciferol] | – | – | – | – | – | – | – | – | – | – | – | statistically significant reduction in CTL activity | 13 ± 4 | 58 | 14 ± 2 | 53 |
